Source: US6207399A, “Methods of determining endogenous thrombin potential (ETP) and thrombin substrates for use in said methods” (Hemker; Hendrik Coenraad, priority 1995, dated 2001)
Square brackets hold non-standard residues; d marks the D form. Peptide text beside a SMILES is read from it. * marks the point of attachment. pNA = O=[N+]([O-])c1ccc(N*)cc1; Nle = CCCC[C@H](N)C(=O)O; Orn = NCCC[C@H](N)C(=O)O

Experiments:
Assay type in all cases: biochemical
thrombin = thrombin (Homo sapiens, UniProt P00734); assay: Kinetic parameters of hydrolysis of the substrates by thrombin in buffer A at 37° C. (Example 4, Table 3); parameters: Pure human α-thrombin; gift of Dr. T. Lindhout (University of Limburg, Maastricht); key to Thrombin kcat: NH: no hydrolysis; details: for Km / Thrombin kcat / Thrombin kcat /Km: buffer A, 37° C.
Procedure: (§1) Kinetic parameters: The hydrolysis experiments were run in buffer A at 37° C. The liberation of p-nitroaniline was monitored at 405 nm in a dual wavelength (405-546 nm) spectrophotometer made in our workshop, using a personal computer for data recording. In a polystyrene microcuvette (total volume 500 μL), buffer A and substrate solution were added to obtain a final substrate concentration between 200 to 2000 μM. After 5 min of incubation at 37° C., enzyme solution was added to achieve a final concentration between 0.5 to 50 nM. The measurement was carried out at 37° C. in a thermostated cuvette-holder. The Michaelis constant (Km) and the catalytic constant (kcat) were obtained by measuring the initial reaction velocities at different substrate concentrations. The data obtained were fitted by linear regression on the Michaelis-Menten equation.
(§2) Kinetic parameters: The Km and kcat values for each substrate were determined at an enzyme concentration of 0.5-50 nM (thrombin) and 50 nM factor Xa. From the initial reaction velocities, measured for at least six substrate concentrations between 200 and 2000 μM, the Km and kcat values were calculated by linear regression on the Michaelis-Menten curve. Table 3 gives an overview of the kinetic parameters of the different substrates hydrolyzed by thrombin and by factor Xa in buffer A.

factor Xa = biological target: T1, factor Xa (Homo sapiens, UniProt P00742); assay: Kinetic parameters of hydrolysis of the substrates by factor Xa in buffer A at 37° C. (Example 4, Table 3); parameters: key to Factor Xa kcat: NH: no hydrolysis; details: for Factor Xa kcat / Factor Xa kcat /Km / Km: buffer A, 37° C., 50 nM factor Xa
T1 construct: human factor Xa samples; gift of Dr. T. Lindhout (University of Limburg, Maastricht)
Procedure: as §1, §2

human α-thrombin = biological target: T2, human α-thrombin (Homo sapiens, UniProt P00734); assay: Kinetics of hydrolysis of substrates by human α-thrombin in buffer A at 37° C. (Example 2, Table 1)
T2 construct: Pure human α-thrombin; gift of Dr. T. Lindhout (University of Limburg, Maastricht)
Procedure: as §1, with “between 1” for “between 200”, “to 100” for “to 50”, “measuring” for “measuring the”
Kinetic parameters: In a preliminary experiment, the substrate was hydrolyzed under the following conditions: enzyme concentration: 10 to 20 nM, substrate concentration: 200 μM in buffer A to get an impression of the initial velocity. […] The results are given in table 1 and 2 for thrombin and factor Xa respectively. The Km and kcat for each substrate were determined from the initial velocities measured for at least six substrate concentrations in the concentration range as given. The enzyme concentration used gives a good signal to noise ratio. The data given are obtained from one or two experiments. The data from table 1 and 2 were only used as the first selection criterion to get a rough impression of the hydrolysis behaviour. Notwithstanding the preliminary character of the measurement it was helpful in the design of the substrates of our interest.

T1 sequence (P00742 41-179 limits assumed): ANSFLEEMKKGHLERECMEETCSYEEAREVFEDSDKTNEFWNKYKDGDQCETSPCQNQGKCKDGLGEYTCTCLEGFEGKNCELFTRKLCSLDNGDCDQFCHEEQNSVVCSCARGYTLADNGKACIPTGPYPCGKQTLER
T1 sequence (P00742 235-488 limits assumed): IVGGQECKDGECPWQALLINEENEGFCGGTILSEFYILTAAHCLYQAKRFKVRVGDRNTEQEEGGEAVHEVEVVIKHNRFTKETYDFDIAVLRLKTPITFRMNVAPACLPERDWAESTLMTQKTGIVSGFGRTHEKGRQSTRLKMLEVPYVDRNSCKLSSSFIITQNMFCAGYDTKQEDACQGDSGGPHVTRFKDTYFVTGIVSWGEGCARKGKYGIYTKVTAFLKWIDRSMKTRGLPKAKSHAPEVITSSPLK

Structure (SMILES) | Km (thrombin) [µM] | Thrombin kcat (thrombin) | Thrombin kcat /Km (thrombin) [M/s] | Factor Xa kcat (factor Xa) | Km (human α-thrombin) [µM] | kcat (human α-thrombin) [s⁻¹] | kcat /Km (human α-thrombin) [M/s] | Factor Xa kcat /Km (factor Xa) [M/s] | Km (factor Xa) [mM] | hydrolysis by thrombin (text on Table 3) (thrombin) | hydrolysis by Factor Xa (text on Table 3) (factor Xa)
CC(C)[C@H](NC(=O)CNC(=O)[C@@H](N)CCC(=O)O)C(=O)N[C@@H](CCCNC(=N)N)C(=O)Nc1ccc([N+](=O)[O-])cc1 [2HCl.H-Glu-Gly-Val-Arg-pNA] (H-EGVR-pNA) | 3270 | 3.51 s⁻¹ | 1070 | 0.93 s⁻¹ |  |  |  | 638 | 1.43 |  | 
CC(C)[C@H](NC(=O)CNC(=O)CNC(=O)[C@@H]1CCCN1C(=O)[C@@H](N)CCC(=O)O)C(=O)N[C@@H](CCCNC(=N)N)C(=O)Nc1ccc([N+](=O)[O-])cc1 [2HCl.H-EPGGVR-pNA, 2HCl.H-Glu-Pro-Gly-Gly-Val-Arg-pNA] (H-EPGGVR-pNA) |  | NH |  | 0.45 s⁻¹ |  |  |  | 468 | 0.961 |  | 
CC(C)[C@H](NC(=O)CNC(=O)CNC(=O)CNC(=O)[C@@H](N)CCC(=O)O)C(=O)N[C@@H](CCCNC(=N)N)C(=O)Nc1ccc([N+](=O)[O-])cc1 [2HCl.H-EGGGVR-pNA, 2HCl.H-Glu-Gly-Gly-Gly-Val-Arg-pNA] (H-EGGGVR-pNA) | 379 | 0.27 s⁻¹ | 704 | 0.30 s⁻¹ |  |  |  | 201 | 1.49 |  | 
Cl.Cl.NCCCC[C@H](NC(=O)[C@@H]1CCCN1C(=O)[C@H](N)Cc1ccccc1)C(=O)Nc1ccc([N+](=O)[O-])cc1 [2HCl.H-D-Phe-Pro-Lys-pNA] (H-[dF]-Pro-Lys-pNA) | 35 | 90 s⁻¹ | 2.58e+06 | NH | 35 | 90.4 | 2.58e+06 |  |  |  | 
CC(C)C(N)C(=O)NC(CCCCN)C(=O)Nc1ccc([N+](=O)[O-])cc1.Cl.Cl (stereo not drawn) [2HCl.H-Val-Lys-pNA] |  | NH |  | NH |  |  |  |  |  |  | 
CCCC[C@H](NC(=O)[C@@H](NC(=O)OCCS(C)(=O)=O)C(C)C)C(=O)Nc1ccc([N+](=O)[O-])cc1 [Msc-Val-Nle-pNA] |  | NH |  | NH |  |  |  |  |  |  | 

Continued, in another order:

Km (thrombin) [µM] | Thrombin kcat (thrombin) | Thrombin kcat /Km (thrombin) [M/s] | Factor Xa kcat (factor Xa) | Km (human α-thrombin) [µM] | kcat (human α-thrombin) [s⁻¹] | kcat /Km (human α-thrombin) [M/s] | Structure (SMILES) | Factor Xa kcat /Km (factor Xa) [M/s] | Km (factor Xa) [mM] | hydrolysis by thrombin (text on Table 3) (thrombin) | hydrolysis by Factor Xa (text on Table 3) (factor Xa)
 | NH |  | NH |  |  |  | CC(C)[C@H](NC(=O)OCCS(C)(=O)=O)C(=O)N[C@@H](CCCCN)C(=O)Nc1ccc([N+](=O)[O-])cc1.Cl [Msc-Val-Lys-pNA.HCl] |  |  |  | 
 | NH |  | NH |  |  |  | CCCC[C@H](NC(=O)[C@@H](NC(=O)CN)C(C)C)C(=O)Nc1ccc([N+](=O)[O-])cc1.Cl [HCl.H-Gly-Val-Nle-pNA] (H-Gly-Val-[Nle]-pNA) |  |  | hydrolysed by neither thrombin nor Factor Xa | hydrolysed by neither thrombin nor Factor Xa
 | NH |  | NH |  |  |  | CC(C)[C@H](NC(=O)OCCS(C)(=O)=O)C(=O)N[C@@H](CCCN)C(=O)Nc1ccc([N+](=O)[O-])cc1.Cl [Msc-Val-Orn-pNA.HCl] |  |  |  | 
932 | 1.44 s⁻¹ | 1540 | 1.07 s⁻¹ |  |  |  | CC(C)[C@H](NC(=O)[C@@H](N)CCC(=O)O)C(=O)N[C@@H](CCCNC(=N)N)C(=O)Nc1ccc([N+](=O)[O-])cc1.Cl.Cl [2HCl.H-Glu-Val-Arg-pNA] (H-Glu-Val-Arg-pNA) | 709 | 1.51 |  | 
 | NH |  | NH |  |  |  | CC(C)[C@H](NC(=O)CN)C(=O)N[C@@H](CCCN)C(=O)Nc1ccc([N+](=O)[O-])cc1.Cl.Cl [2HCl.H-Gly-Val-Orn-pNA] (H-Gly-Val-[Orn]-pNA) |  |  | hydrolysed by neither thrombin nor Factor Xa | hydrolysed by neither thrombin nor Factor Xa
986 | 0.20 s⁻¹ | 198 | NH |  |  |  | CC(C)[C@H](NC(=O)CN)C(=O)N[C@@H](CCCCN)C(=O)Nc1ccc([N+](=O)[O-])cc1.Cl.Cl [2HCl.H-Gly-Val-Lys pNA, 2HCl.H-Gly-Val-Lys-pNA] (H-Gly-Val-Lys-pNA) |  |  | hydrolysed by thrombin | not by Factor Xa
